Results reported in article PMC11597353, “Synthesis of Novel Gefitinib-Conjugated 1,2,3-Triazole Derivatives and Their Effect of Inducing DNA Damage and Apoptosis in Tumor Cells” (Molecules, 2024).
Like-named read-outs stand apart in the source and are kept apart here.

Tests used:
[1] = test system: MCF-7; set-up: method as in PMID 31078767; conditions: MCF-7, MTT method; cited from earlier work
[2] = test system: MOLT-4; set-up: method as in PMID 31078767; conditions: MOLT-4, MTT method; cited from earlier work
[3] = test system: HT-29; set-up: method as in PMID 31078767; conditions: HT-29, MTT method; cited from earlier work
[4] = test system: breast cancer cells (MDA-MB-468); set-up: method as in PMID 31586710; conditions: 2.5 μM; cited from earlier work
[5] = test system: HepG2 cells; set-up: method as in PMID 32745759; conditions: read-out: IC50, growth of HepG2 cells; cited from earlier work
[6] = test system: EGFR T790M; set-up: method as in PMID 37611529; conditions: cited from earlier work
[7] = test system: VEGFR-2; set-up: method as in PMID 37611529; conditions: cited from earlier work
[8] = test system: HepG2 cells; set-up: method as in PMID 34237623, PMID 38675717; conditions: read-out: IC50, inhibitory activity against HepG2 cells; cited from earlier work
[9] = test system: HepG2 cells; assay: CCK8 cell viability / IC50 assay on HepG2 cells; conditions: for % Cell Viability (10 μM): 72 h; for IC50: read-out: HepG2, IC50 (μM) 72 h

SMILES	melting point [°C]	% Cell Viability (10 μM) [9] [%]	IC50 [9] [µM]	other results
O=C1C=C(NCc2cn(Cc3ccc(C(F)(F)F)cc3)nn2)C(=O)c2ccccc21 [Compound 2]				IC50 [1]: 10.4 µM; IC50 [2]: 8.4 µM; IC50 [3]: 6.8 µM
O=C(C1=Cc2cc3ccccc3n2Cc2cnnn21)c1ccccc1 [Compound 3]				colony formation in breast cancer cells (MDA-MB-468) [4]: completely inhibited
Cc1cc(C)nc(NS(=O)(=O)c2ccc(-n3cc(CCc4nc5ccccc5s4)nn3)cc2)n1 [Compound 4]				IC50 [5]: 1.49 µM
NS(=O)(=O)c1ccc(-n2c(SCC(=O)Nc3cccc4ccccc34)nc3ccc(I)cc3c2=O)cc1 [Compound 7]				IC50 [6]: 0.0728 µM; IC50 [7]: 0.0523 µM
COc1cc(C(=O)c2nc3ccccc3c(=O)[nH]2)cc(OC)c1OC [Compound 8]				IC50 [8]: 1.22 µM
COc1cc2ncnc(Nc3cccc(-c4cn(Cc5ccc(Br)cc5)nn4)c3)c2cc1OCCCN1CCOCC1 [Compound 11a, N-(3-(1-(4-bromobenzyl)-1H-1,2,3-triazol-4-yl)phenyl)-7-methoxy-6-(3-morpholinopropoxy)quinazolin-4-amine]	177 to 178	7.07 ± 0.49	5.49 ± 0.21	
COc1cc2ncnc(Nc3cccc(-c4cn(Cc5ccccc5C#N)nn4)c3)c2cc1OCCCN1CCOCC1 [Compound 11b, 2-((4-(3-((7-methoxy-6-(3-morpholinopropoxy)quinazolin-4-yl)amino)phenyl)-1H-1,2,3-triazol-1-yl)methyl)benzonitrile]	167 to 168	59.50 ± 2.74		
COc1cc2ncnc(Nc3cccc(-c4cn(Cc5cc(Br)cc(Br)c5)nn4)c3)c2cc1OCCCN1CCOCC1 [Compound 11c, N-(3-(1-(3,5-dibromobenzyl)-1H-1,2,3-triazol-4-yl)phenyl)-7-methoxy-6-(3-morpholinopropoxy)quinazolin-4-amine]		37.72 ± 2.38		
COc1cc2ncnc(Nc3cccc(-c4cn(Cc5ccc(C)cc5)nn4)c3)c2cc1OCCCN1CCOCC1 [Compound 11d, 7-methoxy-N-(3-(1-(4-methylbenzyl)-1H-1,2,3-triazol-4-yl)phenyl)-6-(3-morpholinopropoxy)quinazolin-4-amine]	168 to 169	36.48 ± 2.89		
COc1cc2ncnc(Nc3cccc(-c4cn(Cc5cc(F)ccc5Br)nn4)c3)c2cc1OCCCN1CCOCC1 [Compound 11e, N-(3-(1-(2-bromo-5-fluorobenzyl)-1H-1,2,3-triazol-4-yl)phenyl)-7-methoxy-6-(3-morpholinopropoxy)quinazolin-4-amine]		7.03 ± 0.16	4.04 ± 0.21	
COc1cc2ncnc(Nc3cccc(-c4cn(Cc5ccc(Br)cc5F)nn4)c3)c2cc1OCCCN1CCOCC1 [Compound 11f, N-(3-(1-(4-bromo-2-fluorobenzyl)-1H-1,2,3-triazol-4-yl)phenyl)-7-methoxy-6-(3-morpholinopropoxy)quinazolin-4-amine]	169 to 170	5.72 ± 0.40	5.15 ± 0.31	
COc1cc2ncnc(Nc3cccc(-c4cn(Cc5ccc(F)c(Cl)c5)nn4)c3)c2cc1OCCCN1CCOCC1 [Compound 11g, N-(3-(1-(3-chloro-4-fluorobenzyl)-1H-1,2,3-triazol-4-yl)phenyl)-7-methoxy-6-(3-morpholinopropoxy)quinazolin-4-amine]	179 to 181	6.50 ± 0.88	5.23 ± 0.2	
COc1cc2ncnc(Nc3cccc(-c4cn(Cc5c(F)cccc5Cl)nn4)c3)c2cc1OCCCN1CCOCC1 [Compound 11h, N-(3-(1-(2-chloro-6-fluorobenzyl)-1H-1,2,3-triazol-4-yl)phenyl)-7-methoxy-6-(3-morpholinopropoxy)quinazolin-4-amine]	177 to 180	6.80 ± 0.14	3.91 ± 0.08	
COc1cc2ncnc(Nc3cccc(-c4cn(Cc5ccccc5[N+](=O)[O-])nn4)c3)c2cc1OCCCN1CCOCC1 [Compound 11i, 7-methoxy-6-(3-morpholinopropoxy)-N-(3-(1-(2-nitrobenzyl)-1H-1,2,3-triazol-4-yl)phenyl)quinazolin-4-amine]		70.10 ± 3.40		
COc1cc2ncnc(Nc3cccc(-c4cn(Cc5ccc([N+](=O)[O-])cc5)nn4)c3)c2cc1OCCCN1CCOCC1 [Compound 11j, 7-methoxy-6-(3-morpholinopropoxy)-N-(3-(1-(4-nitrobenzyl)-1H-1,2,3-triazol-4-yl)phenyl)quinazolin-4-amine]	171 to 173	47.33 ± 2.17		
COc1cc2ncnc(Nc3cccc(-c4cn(Cc5ccccc5F)nn4)c3)c2cc1OCCCN1CCOCC1 [Compound 11k, N-(3-(1-(2-fluorobenzyl)-1H-1,2,3-triazol-4-yl)phenyl)-7-methoxy-6-(3-morpholinopropoxy)quinazolin-4-amine]	184 to 186	14.72 ± 2.29	6.21 ± 0.24	
COc1cc2ncnc(Nc3cccc(-c4cn(Cc5ccc(C(F)(F)F)cc5)nn4)c3)c2cc1OCCCN1CCOCC1 [Compound 11l, 7-methoxy-6-(3-morpholinopropoxy)-N-(3-(1-(4-(trifluoromethyl)benzyl)-1H-1,2,3-triazol-4-yl)phenyl)quinazolin-4-amine]		5.85 ± 1.15	4.53 ± 0.37	
COc1cc2ncnc(Nc3cccc(-c4cn(Cc5cccc(Cl)c5)nn4)c3)c2cc1OCCCN1CCOCC1 [Compound 11n, N-(3-(1-(3-chlorobenzyl)-1H-1,2,3-triazol-4-yl)phenyl)-7-methoxy-6-(3-morpholinopropoxy)quinazolin-4-amine]	164 to 165	7.68 ± 0.34	6.1 ± 0.06	
COc1cc2ncnc(Nc3cccc(-c4cn(Cc5ccc(Cl)cc5)nn4)c3)c2cc1OCCCN1CCOCC1 [Compound 11o, N-(3-(1-(4-chlorobenzyl)-1H-1,2,3-triazol-4-yl)phenyl)-7-methoxy-6-(3-morpholinopropoxy)quinazolin-4-amine]	165 to 167	8.06 ± 0.88	5.14 ± 0.25	
COc1cc2ncnc(Nc3cccc(-c4cn(Cc5ccccc5C)nn4)c3)c2cc1OCCCN1CCOCC1 [Compound 11p, 7-methoxy-N-(3-(1-(2-methylbenzyl)-1H-1,2,3-triazol-4-yl)phenyl)-6-(3-morpholinopropoxy)quinazolin-4-amine]	169 to 171	17.36 ± 1.24	10.1 ± 0.14	
COc1cc2ncnc(Nc3cccc(-c4cn(Cc5cc(C)cc(C)c5)nn4)c3)c2cc1OCCCN1CCOCC1 [Compound 11q, N-(3-(1-(3,5-dimethylbenzyl)-1H-1,2,3-triazol-4-yl)phenyl)-7-methoxy-6-(3-morpholinopropoxy)quinazolin-4-amine]	172 to 173	7.14 ± 0.95	5.38 ± 0.57	
COc1cc2ncnc(Nc3cccc(-c4cn(Cc5cc(F)ccc5C#N)nn4)c3)c2cc1OCCCN1CCOCC1 [Compound 11r, 4-fluoro-2-((4-(3-((7-methoxy-6-(3-morpholinopropoxy)quinazolin-4-yl)amino)phenyl)-1H-1,2,3-triazol-1-yl)methyl)benzonitrile]	164 to 166	9.11 ± 1.63	6.68 ± 0.11	
COc1cc(Cn2cc(-c3cccc(Nc4ncnc5cc(OC)c(OCCCN6CCOCC6)cc45)c3)nn2)cc(OC)c1 [Compound 11s, N-(3-(1-(3,5-dimethoxybenzyl)-1H-1,2,3-triazol-4-yl)phenyl)-7-methoxy-6-(3-morpholinopropoxy)quinazolin-4-amine]	167 to 170	22.89 ± 1.97		
COc1cc2ncnc(Nc3ccc(F)c(Cl)c3)c2cc1OCCCN1CCOCC1 [Gefitinib]		31.03 ± 2.42		
